# “Also recorded” adds a separate entry of the source.
# Test system: women with prior spontaneous preterm birth
# Assay: Multicenter, prospective, double-blind study of 17P vs. placebo for prevention of recurrent SPTB, secondary analysis by hPR genotype
# Format: in vivo, human
# Experimental: The goal of this study was to assess if women with single nucleotide polymorphisms (SNPs) in the human progesterone receptor (hPR) are more or less likely to respond to 17P for the prevention of recurrent SPTB. This study involved secondary analysis of 463 women enrolled in a multicenter, prospective, double-blind study of 17P vs. placebo for the prevention of recurrent SPTB.
# Of 463 patients randomized in the original study, 459 were analyzed. Two thirds of women were randomized to 17P and one third were randomized to placebo. Of those patients who received 17P, 111, or 36%, delivered preterm less than 37 weeks, and 195, or 64%, delivered at term. Among those patients who received placebo, the preterm birth rate was higher, as 55% of women delivered preterm. During summer 2008, DNA was extracted from stored saliva samples. […]
# 20 SNPs in the hPR gene were selected to encompass the large progesterone receptor haplotype block. The 389 individuals with DNA available were then genotyped using TaqMan chemistry with established primers. Allele and genotype frequencies were calculated and evaluated for evidence of genetic predisposition to 17P response. Women were stratified by self-reported race. Primary outcomes evaluated were preterm birth<37 and <32 weeks
# Regression was used to assess for an interaction between genotype, treatment, and clinical outcomes. Models controlled for number of prior spontaneous preterm births, smoking, and pre-pregnancy body mass index.
# Dominant and recessive models of inheritance were used in this study (see Table 2 above). The dominant model assumes that having at least one copy of the minor allele is sufficient for disease. Patients homozygous for the minor allele and heterozygous patients with one minor allele are grouped together; here “little a/little a” and “Big A/little a” are compared with those homozygous for the major allele, “Big A/Big A.” The recessive model assumes that two copies of the minor allele are needed for disease. Here, those patients who are homozygous for the minor allele “little a/little a” are compared against the others.
# Outcomes were available on 459 of the original 463 patients enrolled in the study. The study population of 389 patients was representative of the original cohort (see Table 3 below). The majority of patients in the cohort were African-American. Two-thirds of patients in the cohort received 17P. Furthermore, a similar proportion of patients delivered preterm less than 37 weeks and very preterm, less than 32 weeks, in the cohort when compared to the original study. Additionally, 21.1% of patients smoked during pregnancy. All patients had at least one prior spontaneous preterm birth in order to qualify for the original study. 28% of patients had 2 or more prior spontaneous preterm deliveries. The average pre-pregnancy body mass index was 26.7 kilograms per meter squared.
# [1] = all patients who received 17P, original study cohort (459 analyzed)
smiles,measurement,setting,value
"CCCCCC(=O)O[C@]1(C(C)=O)CC[C@H]2[C@@H]3CCC4=CC(=O)CC[C@]4(C)[C@H]3CC[C@@]21C [17P, 17 alpha-hydroxyprogesterone caproate]",percentage of patients delivering preterm <37 weeks,"African Americans, rs471767 AA genotype (homozygous major allele), receiving 17P, placebo nearly 60%",21%
same,percentage of patients delivering preterm <37 weeks,"African Americans, rs471767 at least one minor allele (G; AG and GG), receiving 17P",under 40%
same,rate of prematurity (SPTB),"African Americans, rs578029 at least one major allele (T), receiving 17P, placebo approximately 55%",25%
same,reduction in preterm birth rates with 17P,"African Americans, rs578029 homozygous for the minor allele (A)",no reduction
same,patients who delivered at term,[1],64%
same,patients who delivered preterm less than 37 weeks,[1],36%
same,rate of preterm birth <32 weeks gestation,"non-African American (Caucasian/Hispanic), rs666553 at least one minor allele (T), receiving 17P, placebo 26.7%",3.4%
same,reduction in prematurity (<32 weeks) with 17P,"non-African American (Caucasian/Hispanic), rs666553 homozygous for the major allele",do not experience any reduction; also recorded: did not experience any reduction
same,rate of preterm birth <32 weeks gestation,"non-African American, rs503362 at least one minor allele (C), receiving 17P, placebo 17.4%",2.6%
same,reduction in the rate of prematurity (<32 weeks) when receiving 17P,"non-African American, rs503362 homozygous for the major allele (G)",did not have a reduction

# Reference: patent US20120046261A1, “COMPOSITIONS AND METHODS FOR DIAGNOSING AND PREVENTING SPONTANEOUS PRETERM BIRTH” (UNIVERSITY OF UTAH RESEARCH FOUNDATION, priority 2009, published 2012)
